From patent US20020137929A1, “1 - (3-heterocyclylphenyl) isothiourea, -isourea, -guanidine and -amidine herbicidal agents” (Intellectual Property Department, BASF Aktiengesellschaft, priority 1998, published 2002)

Key:
[1] = system: GALAP (Galium); assay: Postemergence herbicidal evaluation; type: in vivo, Galium aparine; conditions: postemergence
Summary of the method: (§1)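 Rate range approx. 0.0156–0.500 kg/ha. Foliar application at 40 psi to ~2-week seedlings; surfactant 0.5% TWEEN 20 in 50/50 acetone/water. Evaluation 4–5 wk post-treatment by 0–9 visual injury score, means of replicate tests.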

[2] = system: IPOHE (Morningglory, Ivyleaf); assay: Postemergence herbicidal evaluation; type: in vivo, Ipomoea hederacea; conditions: postemergence
Summary of the method: as §1

[3] = system: SETVI (Foxtail, Green); assay: Postemergence herbicidal evaluation; type: in vivo, Setaria viridis; conditions: postemergence
Summary of the method: as §1

[4] = system: TRZAWR (Wheat, Winter, cv Riband); assay: Postemergence herbicidal evaluation; type: in vivo, Triticum aestivum; conditions: postemergence
Summary of the method: as §1

[5] = system: ABUTH (Velvetleaf); assay: Preemergence herbicidal evaluation; type: in vivo, Abutilon theophrasti; conditions: rated 4-5 weeks after treatment
Summary of the method: (§2)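 Test compound, dissolved in aqueous acetone, was sprayed over planted soil cups at an equivalent of about 0.0156 to 0.500 kg/ha; seeds had been mixed with potting soil. Greenhouse growth followed, with visual 0-9 scoring of injury at four to five weeks.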

[6] = system: IPOHE (Morningglory, Ivyleaf); assay: Preemergence herbicidal evaluation; type: in vivo, Ipomoea hederacea; conditions: rated 4-5 weeks after treatment
Summary of the method: as §2

[7] = system: ECHCG (Barnyardgrass); assay: Preemergence herbicidal evaluation; type: in vivo, Echinochloa crus-galli; conditions: rated 4-5 weeks after treatment
Summary of the method: as §2

[8] = system: SETVI (Foxtail, Green); assay: Preemergence herbicidal evaluation; type: in vivo, Setaria viridis; conditions: rated 4-5 weeks after treatment
Summary of the method: as §2

[9] = system: ZEAMX (Corn, Field); assay: Preemergence herbicidal evaluation; type: in vivo, Zea mays; conditions: rated 4-5 weeks after treatment
Summary of the method: as §2

[10] = system: ECHORC (Watergrass (Calif.)); assay: Preemergence weed control under flooded paddy conditions; type: in vivo, Echinochloa oryzoides; conditions: rated 3-4 weeks after treatment
Summary of the method: (§3)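 Herbicidal effect is scored visually on a 0-9 scale against an untreated control, three to four weeks after compounds are pipetted into the flood water (1.5 to 3 cm deep) over seeds planted in silt loam at 0.5 cm depth. Rates: about 0.0313 to 0.500 kg/ha.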

[11] = system: CYPIR (Rice Flatsedge); assay: as above; type: in vivo, Cyperus iria; conditions: rated 3-4 weeks after treatment
Summary of the method: as §3

[12] = system: MOOVA (Monochoria); assay: as above; type: in vivo, Monochoria vaginalis; conditions: rated 3-4 weeks after treatment
Summary of the method: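 First, seeds or propagules go into the top 0.5 cm of silt loam; next, water is held 1.5 to 3 cm over the soil; then compound (50/50 acetone/water) is pipetted into it at about 0.0313 to 0.500 kg/ha; finally plants are rated visually 0-9 after three to four weeks.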

[13] = rate 0.0313 kg/ha, rating scale 0-9
[14] = rate 0.0625 kg/ha, rating scale 0-9
[15] = rate 0.1250 kg/ha, rating scale 0-9
[16] = rate 0.2500 kg/ha, rating scale 0-9

## Cn1c(C(F)(F)F)cc(=O)n(-c2cc(N=C3SCC(=O)N3Cc3cc(Cl)cc(Cl)c3)c(Cl)cc2F)c1=O [Compound 150, 3-{4-Chloro-5-{[3-(3,5-dichlorobenzyl)-4-oxo-2-thiazolidinylidene]amino}-2-fluorophenyl}-1-methyl-6-(trifluoromethyl)-2,4(1H,3H)-pyrimidinedione]
[1]; rate 0.0156 kg/ha
  Herbicidal rating GALAP: 1.0
[1]; rate 0.0313 kg/ha
  Herbicidal rating GALAP: 2.0
[1]; rate 0.0625 kg/ha
  Herbicidal rating GALAP: 4.0
[2]; rate 0.0156 kg/ha
  Herbicidal rating IPOHE: 9.0
[2]; rate 0.0313 kg/ha
  Herbicidal rating IPOHE: 9.0
[2]; rate 0.0625 kg/ha
  Herbicidal rating IPOHE: 9.0
[3]; rate 0.0156 kg/ha
  Herbicidal rating SETVI: 1.0
[3]; rate 0.0313 kg/ha
  Herbicidal rating SETVI: 1.0
[3]; rate 0.0625 kg/ha
  Herbicidal rating SETVI: 5.0
[4]; rate 0.0156 kg/ha
  Herbicidal rating TRZAWR: 3.5
[4]; rate 0.0313 kg/ha
  Herbicidal rating TRZAWR: 3.5
[4]; rate 0.0625 kg/ha
  Herbicidal rating TRZAWR: 3.5
[5]; [13]
  Preemergence herbicidal rating ABUTH: 0.0
[5]; [14]
  Preemergence herbicidal rating ABUTH: 4.0
[5]; [15]
  Preemergence herbicidal rating ABUTH: 9.0
[5]; [16]
  Preemergence herbicidal rating ABUTH: 9.0
[6]; [13]
  Preemergence herbicidal rating IPOHE: 0.0
[6]; [14]
  Preemergence herbicidal rating IPOHE: 0.0
[6]; [15]
  Preemergence herbicidal rating IPOHE: 9.0
[6]; [16]
  Preemergence herbicidal rating IPOHE: 9.0
[7]; [13]
  Preemergence herbicidal rating ECHCG: 0.0
[7]; [14]
  Preemergence herbicidal rating ECHCG: 0.0
[7]; [15]
  Preemergence herbicidal rating ECHCG: 2.0
[7]; [16]
  Preemergence herbicidal rating ECHCG: 4.0
[8]; [13]
  Preemergence herbicidal rating SETVI: 0.0
[8]; [14]
  Preemergence herbicidal rating SETVI: 0.0
[8]; [15]
  Preemergence herbicidal rating SETVI: 4.0
[8]; [16]
  Preemergence herbicidal rating SETVI: 9.0
[9]; [13]
  Preemergence herbicidal rating ZEAMX: 0.0
[9]; [14]
  Preemergence herbicidal rating ZEAMX: 1.0
[9]; [15]
  Preemergence herbicidal rating ZEAMX: 2.0
[9]; [16]
  Preemergence herbicidal rating ZEAMX: 1.0
[10]; 0.0313 kg/ha
  herbicidal effect rating, ECHORC: 6.0
[10]; 0.0625 kg/ha
  herbicidal effect rating, ECHORC: 7.0
[10]; 0.1250 kg/ha
  herbicidal effect rating, ECHORC: 9.0
[10]; 0.2500 kg/ha
  herbicidal effect rating, ECHORC: 9.0
[11]; 0.0313 kg/ha
  herbicidal effect rating, CYPIR: 9.0
[11]; 0.0625 kg/ha
  herbicidal effect rating, CYPIR: 9.0
[11]; 0.1250 kg/ha
  herbicidal effect rating, CYPIR: 9.0
[11]; 0.2500 kg/ha
  herbicidal effect rating, CYPIR: 9.0
[12]; 0.0313 kg/ha
  herbicidal effect rating, MOOVA: 6.0
[12]; 0.0625 kg/ha
  herbicidal effect rating, MOOVA: 9.0
[12]; 0.1250 kg/ha
  herbicidal effect rating, MOOVA: 9.0
[12]; 0.2500 kg/ha
  herbicidal effect rating, MOOVA: 9.0

## CC(C)COC(=O)CN1C(=O)CSC1=Nc1cc(-n2c(=O)cc(C(F)(F)F)n(C)c2=O)c(F)cc1Cl [Compound 121, Isobutyl 2-{{2-chloro-5-[3,6-dihydro-3-methyl-2,6-dioxo-4-(trifluoromethyl)-1(2H)-pyrimidinyl]-4-fluorophenyl}imino}-4-oxo-3-thiazolidineacetate]
[1]; rate 0.0156 kg/ha
  Herbicidal rating GALAP: 0.0
[1]; rate 0.0313 kg/ha
  Herbicidal rating GALAP: 0.0
[1]; rate 0.0625 kg/ha
  Herbicidal rating GALAP: 3.0
[2]; rate 0.0156 kg/ha
  Herbicidal rating IPOHE: 9.0
[2]; rate 0.0313 kg/ha
  Herbicidal rating IPOHE: 9.0
[2]; rate 0.0625 kg/ha
  Herbicidal rating IPOHE: 9.0
[3]; rate 0.0156 kg/ha
  Herbicidal rating SETVI: 8.0
[3]; rate 0.0313 kg/ha
  Herbicidal rating SETVI: 8.0
[3]; rate 0.0625 kg/ha
  Herbicidal rating SETVI: 9.0
[4]; rate 0.0156 kg/ha
  Herbicidal rating TRZAWR: 3.0
[4]; rate 0.0313 kg/ha
  Herbicidal rating TRZAWR: 4.0
[4]; rate 0.0625 kg/ha
  Herbicidal rating TRZAWR: 5.0
[5]; rate 0.0156 kg/ha
  Preemergence herbicidal rating ABUTH: 9.0
[5]; rate 0.0313 kg/ha
  Preemergence herbicidal rating ABUTH: 9.0
[5]; rate 0.0625 kg/ha
  Preemergence herbicidal rating ABUTH: 9.0
[5]; rate 0.1250 kg/ha
  Preemergence herbicidal rating ABUTH: 9.0
[5]; rate 0.2500 kg/ha
  Preemergence herbicidal rating ABUTH: 9.0
[6]; rate 0.0156 kg/ha
  Preemergence herbicidal rating IPOHE: 0.0
[6]; rate 0.0313 kg/ha
  Preemergence herbicidal rating IPOHE: 0.0
[6]; rate 0.0625 kg/ha
  Preemergence herbicidal rating IPOHE: 3.0
[6]; rate 0.1250 kg/ha
  Preemergence herbicidal rating IPOHE: 4.0
[6]; rate 0.2500 kg/ha
  Preemergence herbicidal rating IPOHE: 9.0
[7]; rate 0.0156 kg/ha
  Preemergence herbicidal rating ECHCG: 0.0
[7]; rate 0.0313 kg/ha
  Preemergence herbicidal rating ECHCG: 0.0
[7]; rate 0.0625 kg/ha
  Preemergence herbicidal rating ECHCG: 4.0
[7]; rate 0.1250 kg/ha
  Preemergence herbicidal rating ECHCG: 7.0
[7]; rate 0.2500 kg/ha
  Preemergence herbicidal rating ECHCG: 9.0
[8]; rate 0.0156 kg/ha
  Preemergence herbicidal rating SETVI: 0.0
[8]; rate 0.0313 kg/ha
  Preemergence herbicidal rating SETVI: 3.0
[8]; rate 0.0625 kg/ha
  Preemergence herbicidal rating SETVI: 7.0
[8]; rate 0.1250 kg/ha
  Preemergence herbicidal rating SETVI: 9.0
[8]; rate 0.2500 kg/ha
  Preemergence herbicidal rating SETVI: 9.0
[9]; rate 0.0156 kg/ha
  Preemergence herbicidal rating ZEAMX: 0.0
[9]; rate 0.0313 kg/ha
  Preemergence herbicidal rating ZEAMX: 4.0
[9]; rate 0.0625 kg/ha
  Preemergence herbicidal rating ZEAMX: 6.0
[9]; rate 0.1250 kg/ha
  Preemergence herbicidal rating ZEAMX: 7.0
[9]; rate 0.2500 kg/ha
  Preemergence herbicidal rating ZEAMX: 8.0
[10]; 0.0313 kg/ha
  herbicidal effect rating, ECHORC: 4.0
[10]; 0.0625 kg/ha
  herbicidal effect rating, ECHORC: 5.0
[10]; 0.1250 kg/ha
  herbicidal effect rating, ECHORC: 6.0
[10]; 0.2500 kg/ha
  herbicidal effect rating, ECHORC: 6.0
[11]; 0.0313 kg/ha
  herbicidal effect rating, CYPIR: 4.0
[11]; 0.0625 kg/ha
  herbicidal effect rating, CYPIR: 4.0
[11]; 0.1250 kg/ha
  herbicidal effect rating, CYPIR: 8.0
[11]; 0.2500 kg/ha
  herbicidal effect rating, CYPIR: 8.0
[12]; 0.0313 kg/ha
  herbicidal effect rating, MOOVA: 9.0
[12]; 0.0625 kg/ha
  herbicidal effect rating, MOOVA: 9.0
[12]; 0.1250 kg/ha
  herbicidal effect rating, MOOVA: 9.0
[12]; 0.2500 kg/ha
  herbicidal effect rating, MOOVA: 9.0
